Where no end group is shown, it is not given here. The star is where a group is joined. Myristoyl = CCCCCCCCCCCCCC(=O)*
Assays:
S. aureus biofilms = test: Antibiofilm activity, crystal violet staining and colony counting; assay type: cell-based, Staphylococcus aureus; details: different concentrations, 37°C, 24 h, crystal violet OD 595 nm and viable count
Method: E. coli (ATCC 25922) and S. aureus (ATCC 25923) were cultured overnight in MHB medium at 37°C. The bacterial suspension was diluted to 100 times and added to a 12-well plate (500 μL/well). Each peptide with a different concentration was added to the corresponding well plate and incubated at 37°C for 24 h. After incubation, 100 μL of culture supernatant was discarded. The biofilm was fixed with 100 μL of 100% methanol for 15 min, then air-dried, then dyed with 0.1% crystal violet (CV) for 30 mins, and washed with distilled water three times. After adding 200 μL of 95% ethanol, the inhibition rate of the biofilm was calculated by measuring the OD value at 595 nm with Infinite M200 PRO, Switzerland. After ultrasonic treatment, the biofilm was fully dispersed into single cells, and the cell suspension was diluted to a suitable concentration for colony counting. All experiments were repeated three times.
The formation of bacterial biofilms in the wounds of DFU patients is the main cause of bacterial resistance. By measuring the antibiofilm ability, the inhibitory and clearing effects of drugs on biofilms can be assessed. In the case of preventing biofilm formation, E. coli and S. aureus were cultured in LB nutrient medium with different concentrations of the novel AMP MYR-DM-ANG1-7 in 24-well plates at 37°C and incubate for 24 h. […]

HUVECs [1] = test: Transwell migration assay; assay type: cell-based, human; details: HUVECs in HG + LPS; p < 0.01
Method: HUVECs (1 × 10^4 cells/well) were incubated in the upper chamber of an 8-μm pore size (Corning, New York) and placed into a 24-well plate for 16 h at 37°C with 5% CO2. Cells adhering to the top surface of the Transwell membrane were carefully removed using a cotton swab. Cells that had migrated to the bottom of the chamber were fixed with 4% paraformaldehyde for 30 min and stained with 0.1% CV for 20 min. Finally, the chambers were placed on slides and imaged using an inverted fluorescence microscope (ThermoFish EVOS, United States). The number of cells in five random fields of each chamber was counted to determine migration ability.

HUVECs [2] = test: Mitochondrial membrane potential, JC-1; assay type: cell-based, human; details: HG + LPS, 20 μg/mL, p < 0.0001
Method: JC-1 is a widely used and ideal fluorescent probe for detecting MMP. When the MMP is high, JC-1 accumulates in the matrix of the mitochondria, forming J-aggregates that emit red fluorescence. When the MMP is low, JC-1 cannot accumulate in the mitochondrial matrix, remaining as a monomer that emits green fluorescence. HUVECs were cultured in well plates containing DMEM at a density of 1 × 10^6 cells/well. Following the indicated treatments, the slides were washed three times with PBS and the cells were incubated with 1 mg/l JC-1 at 37°C for 30 min in the incubator, washed briefly three times with PBS. The fluorescence was measured over the entire field of vision using a fluorescent microscope connected to an inverted fluorescence microscope (ThermoFish EVOS, United States). The experiment was repeated three times.

## Myristoyl-SSRRKPCKGWLCKLKLRGGYTLIGSATNLNRPTYVRAGGGDRVYIHP (cysteines drawn unpaired) [MYR-DM-ANG1-7]
S. aureus biofilms
  formation of S. aureus biofilms: effectively inhibit
HUVECs [1]
  number of cells passing through the chamber (Transwell): increased
HUVECs [2]
  mitochondrial membrane potential (JC-1): increase

— article PMC12419922, “Myristoylated Cathelicidin-DM Fused With ANG1-7: A Novel Self-Assembling Antimicrobial Peptide for the Treatment and Mechanism of Diabetic Infected Wounds” (Journal of Diabetes Research, 2025)
